These are literature values, as cited in US11459445B2, “Composition and molded body” (SUMITOMO CHEMICAL COMPANY, LIMITED, priority 2018, dated 2022).

This data set concerns C. violaceum CV026. The settings on record: N-hexanoyl homoserine lactone added; compared with no caffeine; Sensors 2013, 13, 5117-5129.

Regarding `Cn1c(=O)c2c(ncn2C)n(C)c1=O` [caffeine], the “amount of violet pigment (violacein) produced” value is reported as “smaller”.
